Laboratory results from US8507538B2, “Selective heterocyclic sphingosine 1 phosphate receptor modulators” (Receptos, Inc., priority 2009, dated 2013).
Read-outs that look alike come from different tables or passages of the source.

Legend:
[1] = molecular target: S1P1/EDG1 (Homo sapiens, UniProt P21453); assay: S1P1 CRE-bla CHOK1 reporter assay (inhibition of Forskolin induced cAMP); format: cell-based
Outline: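 Stable CRE-bla CHO-K1 clone expressing human S1P1, serum-starved (0.5% stripped serum) 18 h, then treated with compound (10-point curve) plus 2 μM forskolin for 4 h at 37 °C. β-lactamase FRET ratio (458/522 nm) read after 2 h substrate loading; EC50 for inhibition of forskolin-induced cAMP by non-linear regression.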

[2] = molecular target: T1, S1P3 (Homo sapiens, UniProt Q99500); assay: Specificity over other S1P receptors: S1P3-Gα15 NFAT-bla HEK293T; format: cell-based; settings: without Forskolin; read-out: S1P3 agonist value (EC50)
T1 construct: host or cells: NFAT-bla HEK293T co-expressing Gα15
T1 sequence (Q99500 whole entry): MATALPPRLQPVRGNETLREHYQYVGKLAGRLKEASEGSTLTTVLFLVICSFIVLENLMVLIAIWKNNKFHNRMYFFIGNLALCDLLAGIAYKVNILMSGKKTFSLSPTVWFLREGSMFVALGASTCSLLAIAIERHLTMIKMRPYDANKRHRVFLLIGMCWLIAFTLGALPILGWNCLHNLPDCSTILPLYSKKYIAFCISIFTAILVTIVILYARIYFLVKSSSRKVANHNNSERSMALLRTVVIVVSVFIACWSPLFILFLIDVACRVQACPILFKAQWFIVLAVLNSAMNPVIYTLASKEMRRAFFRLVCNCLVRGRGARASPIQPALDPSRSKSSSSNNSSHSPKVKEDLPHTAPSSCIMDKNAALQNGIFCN
Procedure: (§1) Cells were seeded into 384-well black wall/clear bottom plates at 10^4 cells/well/19.5 μl assay media (DMEM-phenol free, 0.5% charcoal/dextran stripped serum, 2 mM glutamine, 0.1 mM NEAA, 1 mM Na-Pyruvate, 25 mM Hepes) and incubated for 18 hrs at 37° C. in 5% CO2. Dose response curves (10-point) were generated in 10 mM Hepes, 0.1% Pluronic F127, in the presence of Forskolin. Cells were treated with 0.5 μl compound in the presence of 2 μM Forskolin for 4 hrs at 37° C. The FRET-based β-lactamase fluorescent substrate (LiveBLAzer™ FRET B/G Loading Kit CC4-AM; Invitrogen) was prepared according to manufacturer's directions, and incubated with cells for 2 hrs at room temperature. Plates were read at Ex:410/Em:458 and Ex:410/Em:522, and the response ratio determined. Data was analyzed by non-linear regression to determine the EC50 for inhibition of Forskolin induced cAMP.
(§2) To assess compound specificity on other S1P receptors the following cell lines were used: S1P2 CRE-bla CHOK1, S1P3-Gα15 NFAT-bla HEK293T (Invitrogen), S1P4-bla TANGO U2OS (Invitrogen), S1P5-bla TANGO U2OS (Invitrogen). The same assay set up for S1P1 was used but without Forskolin. S1P4 and S1P5 assays were performed in FreeStyle Expression medium (Invitrogen). S1P5 cells were incubated for 48 hrs in prior to treatment with compound.

[3] = system: CD4 or CD8 positive T cells; assay: Lymphopenia in rats; format: in vivo; settings: rat, 24 h after a 0.2 mg/kg single dose; for inhibition in vivo at 0.2 mg/kg: CD8 positive, po
Procedure: In rats: Female rats (Simonsen Laboratories, Gilroy Calif.) were housed in an ALAAC accredited facility and the research was approved by the facilities Institutional Animal Care and Use Committee (IACUC). The animals were acclimated to the laboratory for at least 5 days prior to initiation of experiments. Rats (n=3/compound/time-point) were dosed by oral gavage with 1 mg/kg compound formulated in a vehicle consisting of 5% DMSO/5% Tween 20 and 90% 0.1N HCL. Control rats were dosed PO with the vehicle. Whole blood was collected from isoflurane anesthetized rats via the retro-orbital sinus and terminal samples were collected by cardiac puncture into EDTA. Whole blood was incubated with mouse anti-rat CD32 (BD #550271), PE-mouse anti-rat CD45R/B220 (BD #554881), PECy5-mouse anti-rat CD4 (BD #554839), and APC-mouse anti-rat CD8a (eBioscience #17-0084) for 30 minutes on ice. Red blood cells were lysed using BD Pharm. Lyse Lysing buffer (#555899) and white blood cells were analyzed with a BD FACSArray. Lymphopenia was expressed as the % of white blood cells that were CD4 or CD8 positive T cells. The overall lymphopenia response over 24 h was estimated by calculating the area under the effect curve (AUEC) using the linear trapezoidal rule. In some experiments, total lymphocyte counts were determined using a standard impediance based veterinary hematology analyzer (IDEXX Preclinical Research Services, Sacramento, Calif.).
The percentage of lymphopenia at 24 h after a 0.2 mg/kg single dose regiment is reported. […] N/A is not available.

[4] = molecular target: T2, S1P5 (Homo sapiens, UniProt Q9H228); assay: Specificity over other S1P receptors: S1P5-bla TANGO U2OS; format: cell-based; settings: without Forskolin, FreeStyle Expression medium; read-out: S1P5 agonist value (EC50)
T2 construct: Tango fusion (own knowledge: TEV protease site + GAL4-VP16 transcription factor fused to the receptor's C-terminus); host or cells: Tango bla U2OS
T2 sequence (Q9H228 whole entry, the tested form may be a part): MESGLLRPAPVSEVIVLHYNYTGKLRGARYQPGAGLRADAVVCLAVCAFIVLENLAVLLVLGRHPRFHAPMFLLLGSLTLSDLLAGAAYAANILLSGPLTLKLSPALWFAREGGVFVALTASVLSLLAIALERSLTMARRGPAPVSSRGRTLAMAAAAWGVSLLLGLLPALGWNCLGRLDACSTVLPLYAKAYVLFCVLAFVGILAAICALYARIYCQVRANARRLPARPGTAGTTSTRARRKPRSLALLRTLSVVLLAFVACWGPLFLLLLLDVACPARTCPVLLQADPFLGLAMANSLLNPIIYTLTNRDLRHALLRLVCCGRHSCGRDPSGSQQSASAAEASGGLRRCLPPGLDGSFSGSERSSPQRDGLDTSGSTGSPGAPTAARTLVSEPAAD
Procedure: as §1, §2

[5] = molecular target: T3, S1P4 (Homo sapiens, UniProt O95977); assay: Specificity over other S1P receptors: S1P4-bla TANGO U2OS; format: cell-based; settings: without Forskolin, FreeStyle Expression medium; read-out: S1P4 agonist value (EC50)
T3 construct: Tango fusion (own knowledge: TEV protease site + GAL4-VP16 transcription factor fused to the receptor's C-terminus); host or cells: Tango bla U2OS
T3 sequence (O95977 1-384): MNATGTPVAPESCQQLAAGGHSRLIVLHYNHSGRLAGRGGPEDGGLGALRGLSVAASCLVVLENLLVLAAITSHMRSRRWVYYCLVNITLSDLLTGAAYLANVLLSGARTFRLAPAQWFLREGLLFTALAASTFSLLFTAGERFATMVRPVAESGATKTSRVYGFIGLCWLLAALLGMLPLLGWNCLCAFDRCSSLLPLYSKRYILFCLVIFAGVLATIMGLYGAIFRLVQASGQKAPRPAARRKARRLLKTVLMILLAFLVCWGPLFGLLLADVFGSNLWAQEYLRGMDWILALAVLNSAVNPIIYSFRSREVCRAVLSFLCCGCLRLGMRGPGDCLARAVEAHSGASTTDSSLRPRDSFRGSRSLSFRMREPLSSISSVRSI
Procedure: as §1, §2

[6] = molecular target: T4, S1P2 (Homo sapiens, UniProt O95136); assay: Specificity over other S1P receptors: S1P2 CRE-bla CHOK1; format: cell-based; settings: without Forskolin; read-out: S1P2 agonist value (EC50)
T4 construct: expressed in transfected cells; host or cells: CRE-bla CHOK1
T4 sequence (O95136 whole entry, species assumed): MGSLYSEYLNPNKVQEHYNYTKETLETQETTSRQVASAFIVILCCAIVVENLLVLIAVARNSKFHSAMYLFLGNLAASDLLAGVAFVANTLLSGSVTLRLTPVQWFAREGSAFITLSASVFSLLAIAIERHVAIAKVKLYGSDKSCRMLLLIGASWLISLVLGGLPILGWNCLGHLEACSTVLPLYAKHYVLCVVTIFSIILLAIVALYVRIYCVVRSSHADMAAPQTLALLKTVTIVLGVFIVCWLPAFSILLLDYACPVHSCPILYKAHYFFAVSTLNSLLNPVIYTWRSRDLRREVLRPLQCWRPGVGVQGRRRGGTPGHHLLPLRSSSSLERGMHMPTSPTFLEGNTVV
Procedure: as §1, §2

[7] = system: CD4 or CD8 positive T cells; assay: Lymphopenia in rats; format: in vivo; settings: rat, at 24 h after a 3-5 day dosing regimen
[8] = Table 3, read-out: S1P1 agonist value (EC50)

Chain of S1P1/EDG1 (P21453 whole entry): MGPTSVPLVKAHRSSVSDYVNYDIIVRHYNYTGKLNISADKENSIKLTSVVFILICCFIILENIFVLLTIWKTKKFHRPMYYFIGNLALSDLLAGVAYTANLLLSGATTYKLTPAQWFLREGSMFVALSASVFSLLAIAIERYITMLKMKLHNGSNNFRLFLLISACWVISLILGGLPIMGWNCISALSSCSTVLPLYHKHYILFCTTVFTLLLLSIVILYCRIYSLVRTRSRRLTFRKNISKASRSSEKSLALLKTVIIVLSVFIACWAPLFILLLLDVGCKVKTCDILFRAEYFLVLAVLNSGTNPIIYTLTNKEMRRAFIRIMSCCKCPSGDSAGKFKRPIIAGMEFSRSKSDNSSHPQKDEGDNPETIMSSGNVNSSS

Molecule | EC50 [1, 8] [nM] | EC50 ([1]; agonist activity range, Table 2, read-out: S1P1 ACTIVITY) [nM] | EC50 [2] [nM] | inhibition in vivo at 0.2 mg/kg [3] [%] | EC50 [4] [nM] | EC50 [5] [nM] | EC50 [6] [nM] | ED50 ([7]; CD8 positive, read-out: ED50, estimated dose needed to produce 50% lymphopenia) [mg/kg] | % Lymphopenia after 24 h (0.2 mg/kg) [3] [%] | ED50, estimated dose needed to produce 50% lymphopenia [7] [mg/kg]
CC(C)Oc1ccc(-c2nnc(-c3cccc4c3CC[C@@H]4NS(N)(=O)=O)s2)cc1C#N [Compound 47, (S)-N-(4-(5-(3-cyano-4-isopropoxyphenyl)-1,3,4-thiadiazol-2-yl)-2,3-dihydro-1H-inden-1-yl)sulfamide] | 0.03 | < 0.05 | > 10000 | 17 | 22 | > 10000 | > 10000 |  |  | 
CC(C)Oc1ccc(-c2ncc(-c3cccc4c3CC[C@H]4NC(=O)N3CCOCC3)s2)cc1C#N [Compound 186, (R)-N-(4-(2-(3-cyano-4-isopropoxyphenyl)thiazol-5-yl)-2,3-dihydro-1H-inden-1-yl)morpholine-4-carboxamide] | 0.41 |  | > 10000 | 25 | 126 |  |  | 0.2 |  | 
(R)-2-(N-(4-(5-(3-cyano-4-isopropoxyphenyl)-1,3,4-thiadiazol-2-yl)-2,3-dihydro-1H-inden-1-yl)sulfamoyl)-N,N-dimethylacetamide [Compound 43] | 0.07 |  |  |  | 444 |  |  |  | 40 | 
(R)-N-(4-(2-(3-cyano-4-isopropoxyphenyl)thiazol-5-yl)-2,3-dihydro-1H-inden-1-yl)pyrrolidine-1-carboxamide [Compound 172] |  |  |  |  |  |  |  |  | 22 | 0.20
(R)-N-(4-(2-(3-cyano-4-isopropoxyphenyl)thiazol-5-yl)-2,3-dihydro-1H-inden-1-yl)sulfamide [Compound 166] |  |  |  |  |  |  |  |  | 47 | 0.07
(R)-N-(4-(5-(3-cyano-4-isopropoxyphenyl)-1,3,4-thiadiazol-2-yl)-2,3-dihydro-1H-inden-1-yl)-2-hydroxyethanesulfonamide [Compound 46] | 0.25 |  |  |  | 194 | 2170 |  |  | 39 | 
